# Like-named read-outs stand apart in the source and are kept apart here.
# Experiments:
# [1] = system: third-instar larvae of diamond back moth; experiment: Test 4: Effect on Diamond Back Moth; format: in vivo; settings: Plutella xylostella, 24 hours
# How it was run: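 Emulsifiable concentrate diluted in water to 100 or 20 ppm and sprayed at 3 ml per cup onto cabbage leaves holding 10 third-instar diamondback moth larvae. Dead and living larvae counted after 24 h; mortality averaged over three cups.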
# [2] = system: Second-instar and fifth-instar larvae of tobacco cutworm; experiment: Test 2: Tobacco Cutworm Larva Dipping Test; format: in vivo
# German cockroach = experiment: Test 7: Effect on German Cockroach; format: in vivo; settings: Blattella germanica, male adults, 24 hours, agonized and killed; for mortality at 10 mg/m2: 10 mg/m^2; for mortality at 50 mg/m2: 50 mg/m^2
# How it was run: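 Dish bottoms were treated with 50 or 10 mg/m^2 of test compound and air-dried, then 10 male adult cockroaches were released per dish and held at 25° C. Agonized and killed adults were counted after 24 hours, averaged over two dishes.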
# Test 8: Fish Toxicity = format: in vivo; settings: carp, water, carps, concentration at which 1/2 of the test fishes were killed, read-out: Fish Toxicity, TLm48
# Procedure: A water tank having a width of 60 cm, a length of 30 cm and a height of 40 cm was filled with water, and 10 yearling carps having a body length of about 5 cm were set free in the tank and adapted to the environment in the tank. A test compound was applied so that the concentration in water was 10, 1, or 0.1 ppm. After 48 hours, the numbers of killed and living carps were counted and the influences on the fishes were examined.
# green peach aphids = experiment: Test 5: Effect on green peach Aphid; format: in vivo; settings: Myzus persicae, 24 hours, mortality class, read-out: Insecticidal Activity
# Procedure: To a mixture of 20 parts of the compound of the present invention and 20 parts of Sorpol SM-200 (registered trademark for the product supplied by Toho Chemical Industrial Co., Ltd.) was added 60 parts of xylol, and the mixture was sufficiently blended. The obtained emulsifiable concentrate was diluted at a predetermined concentration with distilled water, and the obtained dilution was used.
# Seedlings (having 3 to 4 leaves) of an eggplant grown on a pot were inoculated with green peach aphids and the insects were allowed to grow. The number of the insects was counted. A chemical dilution having a concentration of 100 ppm, prepared in the same manner as described in Test 1, was applied with a spray gun at a rate of 10 ml per pot. Then, the pot was placed in a glass green house. After 24 hours, the number of living insects was counted and the mortality was calculated.
# The test was made on three pots, and the average value was calculated. In Table 6, mark "A" indicates a mortality higher than 95%, mark "B" indicates a mortality of 80 to 95%, mark "C" indicates a mortality of 50 to 80%, and mark "D" indicates a mortality lower than 50%.
# [3] = Test 9: Toxicity Test (acute oral, mice); settings: mouse, in vivo, po
# How it was run: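 Compound dissolved or suspended in corn oil was given orally to male mice of 19–23 g body weight, at 0.2 ml per 10 g. Deaths and effects were recorded after 7 days.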
# two-spotted spider mite = experiment: Test 6: Effect on Two-Spotted Spider mite adults; format: in vivo; settings: Tetranychus urticae; 500 ppm; adults; 24 hours; read-out: Mortality (%)
# How it was run: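 Kidney bean leaf discs (15 mm) on wet cotton, each holding 10 adult mites, sprayed with 3 ml of a 500 ppm dilution of an emulsifiable concentrate. Kept at 25° C; dead adults counted after 24 hours to give mortality, averaged over three discs.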
# [4] = system: sensitive green rice leafhopper (collected at Chigasaki); experiment: Test 3: Effect on Sensitive Green Rice Leafhopper; format: in vivo; settings: Nephotettix cincticeps, female adults, 24 hours
# How it was run: (§1)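 Rice seedlings (2–3 leaves) sprayed with emulsifiable-concentrate dilutions at 100 or 20 ppm, 3 ml per pot, air-dried, then infested with 10 female adults per pot. Mortality counted after 24 h and averaged over three pots.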
# [5] = system: resistant green rice leafhopper (collected at Nakagawara); experiment: Test 3: Effect on Resistant Green Rice Leafhopper; format: in vivo, Nephotettix cincticeps Uhler; settings: Nephotettix cincticeps, 24 h, read-out: Mortality (%) Green Rice Leafhopper Collected at Nakagawara
# How it was run: as §1
# [6] = 20 ppm, second-instar larvae, 24 hours, read-out: Mortality (%) Second-Instar Larvae
# [7] = 100 ppm, second-instar larvae, 24 hours, read-out: Mortality (%) Second-Instar Larvae
# [8] = topical, 24 h, read-out: Mortality (%) Fifth-Instar Larvae
Structure (SMILES),mortality at 20 ppm [1] [%],mortality at 100 ppm [1] [%],"mortality at 20 ppm [2, 6] [%]","mortality at 100 ppm [2, 7] [%]","mortality at 20 ppm [2, 8] [%]","mortality at 100 ppm [2, 8] [%]",mortality at 10 mg/m2 (German cockroach) [%],mortality at 50 mg/m2 (German cockroach) [%],LC50 at 48 h (Test 8: Fish Toxicity) [µg/mL],mortality at 100 ppm (green peach aphids) [%],LD50 at 168 h [3] [mg/kg],mortality at 500 ppm (two-spotted spider mite) [%],mortality at 20 ppm [4] [%],mortality at 100 ppm [4] [%],mortality at 20 ppm [5] [%],mortality at 100 ppm [5] [%]
"CC(C)(COCc1ccc(F)c(Oc2ccc(F)cc2)c1)c1ccc(Cl)cc1 [Compound 1, 3-(4-Fluorophenoxy)-4-fluorobenzyl 2-(4-chlorophenyl)-2-methylpropyl ether]",100,100,80,90,70,80,100,100,~1,> 95,> 500,100,–,–,–,–
"CC(C)(COCc1ccc(F)c(Oc2ccccc2)c1)c1ccccc1 [Compound 2, 3-Phenoxy-4-fluorobenzyl 2-phenyl-2-methylpropyl ether]",100,100,100,100,100,100,100,100,> 1,> 95,> 500,–,100,100,100,100
"CC(C)(COCc1ccc(Cl)c(Oc2ccccc2)c1)c1ccc(Cl)cc1 [Compound 3, 3-Phenoxy-4-chlorobenzyl 2-(4-chlorophenyl)-2-methylpropyl ether]",100,100,–,–,–,–,90,100,> 10,> 95,> 500,90,80,100,90,100
"CC(C)(CSCc1ccc(F)c(Oc2ccccc2)c1)c1ccc(Cl)cc1 [Compound 4, 3-Phenoxy-4-fluorobenzyl 2-(4-chlorophenyl)-2-methylpropyl thioether]",90,100,–,–,–,–,90,100,> 0.5,> 95,> 500,90,–,–,–,–
"CCC(COCc1ccc(F)c(Oc2ccccc2)c1)c1ccc(Cl)cc1 (stereo not drawn) [Compound 6, 3-Phenoxy-4-fluorobenzyl 2-(4-chlorophenyl)-butyl ether]",100,100,90,100,85,100,100,100,> 1,> 95,> 500,100,100,100,100,100
"CC(C)(COCc1ccc(F)c(Oc2ccccc2)c1)c1ccc(Cl)cc1 [Compound 10, 3-phenoxy-4-fluorobenzyl 2-(4-chlorophenyl)-2-methylpropyl ether]",100,100,100,100,100,100,100,100,> 0.1,> 95,> 500,100,100,100,100,100
"CC(C)(COCc1ccc(F)c(Oc2ccc(Br)cc2)c1)c1ccc(Cl)cc1 [Compound 15, 3-(4-bromophenoxy)-4-fluorobenzyl 2-(4-chlorophenyl)-2-methylpropyl ether]",100,100,100,100,100,100,100,100,> 10,> 95,> 500,100,–,–,–,–
"CC(C)(COCc1ccc(F)c(Oc2ccccc2)c1)c1ccc(Br)cc1 [Compound 18, 3-Phenoxy-4-fluorobenzyl 2-(4-bromophenyl)-2-methylpropyl ether]",100,100,–,–,–,–,100,100,> 0.1,> 95,> 500,100,–,–,–,–
"CCCCCOc1ccc(C(C)(C)COCc2ccc(F)c(Oc3ccccc3)c2)cc1 [Compound 38, 3-Phenoxy-4-fluorobenzyl 2-(4-n-pentyloxyphenyl)-2-methylpropyl ether]",100,100,–,–,–,–,100,100,> 1,> 95,–,100,–,–,–,–
"CC(C)(COCc1ccc(F)c(Oc2ccccc2)c1)c1cc(Cl)cc(Cl)c1 [Compound 48, 3-Phenoxy-4-fluorobenzyl 2-(3,5-dichlorophenyl)-2-methylpropyl ether]",–,–,–,–,–,–,–,–,> 1,80 to 95,> 500,–,100,100,100,100
"CC(C)(COCc1ccc(F)c(Oc2ccccc2)c1)c1ccc(Oc2ccccc2)cc1 [Compound 52, 3-Phenoxy-4-fluorobenzyl 2-(4-phenoxyphenyl)-2-methylpropyl ether]",–,–,–,–,–,–,100,100,> 1,> 95,–,100,–,–,–,–
"COCSc1ccc(C(C)(C)COCc2ccc(F)c(Oc3ccccc3)c2)cc1 [Compound 60, 3-Phenoxy-4-fluorobenzyl 2-(4-methoxymethylthiophenyl)-2-methylpropyl ether]",95,100,–,–,–,–,100,100,> 1,> 95,–,–,90,100,100,100
"CC(C)(COCc1ccc(F)c(Oc2ccccc2)c1)c1ccc(-c2ccccc2)cc1 [Compound 61, 3-Phenoxy-4-fluorobenzyl 2-(4-biphenyl)-2-methylpropyl ether]",–,–,–,–,–,–,85,100,> 1,> 95,> 500,100,100,100,100,100
"CCOc1ccc(C(C)(C)COCc2ccc(F)c(Oc3ccc(Br)cc3)c2)cc1 [Compound 68, 3-(4-Bromophenoxy)-4-fluorobenzyl 2-(4-ethoxyphenyl)-2-methylpropyl ether]",100,100,–,–,–,–,–,–,> 1,> 95,> 500,–,100,100,100,100

# From patent US4599362A, “2-aryl-ethyl ether derivatives and insecticidal and acaricidal agents containing said derivatives” (priority 1980, dated 1986)
